Reference: patent publication US9315490B2, “2,5-substituted pyrimidines” (Grünenthal GmbH, priority 2014, dated 2016)

Molecular target: T1, human PDE4B1 (Homo sapiens, UniProt Q07343)
T1 construct: host or cells: Sf9 cells
Test: TR-FRET assay using the LANCE Ultra cAMP kit to determine the activity of hPDE4B1
Format: biochemical
Conditions: for inhibition at 1 µM: test concentration 1 μM; for inhibition at 1 µM / inhibition at 10 µM: read-out: Inhibition in % (inhibition of PDE4B)
Excerpt: TR-FRET Assay Using the LANCE® Ultra cAMP Kit to Determine the Activity of hPDE4B1
The effects of the compounds on the activity of the human PDE4B1 was quantified by measuring the production of 5′AMP from cAMP using a human recombinant enzyme expressed in Sf9 cells and the LANCE® Ultra cAMP kit, a TR-FRET detection method from PerkinElmer. The human PDE4B1 enzyme was purchased from SignalChem Lifesciences (Catalog# P92-31BG, Lot# H296-2).
The test compound, reference compound or water (control) was mixed with the enzyme (0.96 U) in a reaction buffer containing 50 mM Tris-HCl, 50 mM MgCl2 and 5 mM DTT (pH 8.5). Thereafter, the reaction was initiated by addition of 500 nM cAMP (substrate) and the mixture was incubated for 30 minutes at room temperature. For control basal measurements, the enzyme was omitted from the reaction mixture. After 30 minutes, the reaction was stopped and diluted by a factor of 100 with the reaction buffer supplemented with 500 μM IBMX. The fluorescence donor (europium chelate-labeled cAMP) and the fluorescence acceptor (anti-cAMP antibody labeled with the ULight™ dye) were then added together with 500 μM IBMX to a 10 μl aliquot. After 60 minutes, the fluorescence transfer corresponding to the amount of residual cAMP was measured at λex=337 nm, λem=620 nm and λem=665 nm using a microplate reader (PHERAstar, BMG). The enzyme activity was determined by dividing the signal measured at 665 nm by that measured at 620 nm (ratio) multiplied by 10000. The results were expressed as percent inhibition of the control enzyme activity. IC50 values (IC50=concentration causing a half-maximal inhibition of control specific activity) were derived from dose response measurements with ten different concentrations (n=3; N=1-3).

[1] = test concentration 10 μM (marked in cell)

T1 sequence (Q07343 whole entry): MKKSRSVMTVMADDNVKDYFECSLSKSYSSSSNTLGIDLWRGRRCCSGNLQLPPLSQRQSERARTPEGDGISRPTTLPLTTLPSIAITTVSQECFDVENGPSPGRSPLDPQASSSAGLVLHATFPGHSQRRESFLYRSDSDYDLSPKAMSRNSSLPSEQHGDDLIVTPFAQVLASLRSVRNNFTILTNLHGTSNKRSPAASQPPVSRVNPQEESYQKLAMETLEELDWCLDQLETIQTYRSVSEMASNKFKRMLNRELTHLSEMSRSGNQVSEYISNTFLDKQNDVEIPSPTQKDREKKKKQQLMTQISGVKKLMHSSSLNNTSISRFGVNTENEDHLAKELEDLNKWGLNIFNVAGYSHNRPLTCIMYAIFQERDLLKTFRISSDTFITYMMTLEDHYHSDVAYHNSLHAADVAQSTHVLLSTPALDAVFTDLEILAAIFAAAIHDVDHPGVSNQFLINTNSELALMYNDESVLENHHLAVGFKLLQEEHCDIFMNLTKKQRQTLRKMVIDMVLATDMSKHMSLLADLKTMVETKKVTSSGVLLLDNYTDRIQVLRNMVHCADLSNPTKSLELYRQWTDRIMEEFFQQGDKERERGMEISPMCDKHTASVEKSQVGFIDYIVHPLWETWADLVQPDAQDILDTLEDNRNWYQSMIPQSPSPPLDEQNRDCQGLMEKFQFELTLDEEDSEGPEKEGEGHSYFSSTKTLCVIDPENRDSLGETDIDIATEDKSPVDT

inhibition at 1 µM [%]	inhibition at 10 µM [1] [%]	SMILES	other results
97	–	C[S+]([O-])c1cn(-c2ncc(-c3cc(OC(F)(F)F)ccc3F)cn2)c2cc(C(=O)N3CCOCC3)ccc12 (stereo not drawn) [Example 263, (1-(5-(2-Fluoro-5-(trifluoromethoxy)phenyl)pyrimidin-2-yl)-3-(methylsulfinyl)-1H-indol-6-yl)(morpholino)methanone]	–
–	99	CN(CC(N)=O)C(=O)c1ccc2c([S+](C)[O-])cn(-c3ncc(-c4cc(C(C)(C)O)ccc4F)cn3)c2c1 (single isomer, unassigned) [Example 334, N-(2-Amino-2-oxoethyl)-1-(5-(2-fluoro-5-(2-hydroxypropan-2-yl)phenyl)pyrimidin-2-yl)-N-methyl-3-(methylsulfinyl)-1H-indole-6-carboxamide]	–
98	–	Cc1ccc(F)c(-c2cnc(-n3cc([S+](C)[O-])c4ccc(C(=O)N5CCCC5)cc43)nc2)c1 (stereo not drawn) [Example 265, (1-(5-(2-Fluoro-5-methylphenyl)pyrimidin-2-yl)-3-(methylsulfinyl)-1H-indol-6-yl)(pyrrolidin-1-yl)methanone]	–
–	99	C[S+]([O-])c1cn(-c2ncc(-c3cc(N4CCCC4)ccn3)cn2)c2cc(C(=O)N3CCOCC3)ccc12 (stereo not drawn) [Example 301, (3-(Methylsulfinyl)-1-(5-(4-(pyrrolidin-1-yl)pyridin-2-yl)pyrimidin-2-yl)-1H-indol-6-yl)(morpholino)methanone]	–
93	–	C[S+]([O-])c1cn(-c2ncc(-c3cc(N4CCCC4)ccn3)cn2)c2cc(C(=O)N3CCOCC3)ccc12 (stereo not drawn) [Example 297, (3-(Methylsulfinyl)-1-(5-(4-(pyrrolidin-1-yl)pyridin-2-yl)pyrimidin-2-yl)-1H-indol-6-yl)(morpholino)methanone]	–
98	–	CCN(C)C(=O)c1ccc2c([S+](C)[O-])cn(-c3ncc(-c4cc(C)ccc4F)cn3)c2c1 (stereo not drawn) [Example 266, N-Ethyl-1-(5-(2-fluoro-5-methylphenyl)pyrimidin-2-yl)-N-methyl-3-(methylsulfinyl)-1H-indole-6-carboxamide]	–
92	–	Cc1ccnc(-c2cnc(-n3cc(S(C)(=N)=O)c4ccc(C(=O)N5CCOCC5)cc43)nc2)c1 (stereo not drawn) [Example 288, (1-(5-(4-Methylpyridin-2-yl)pyrimidin-2-yl)-3-(S-methylsulfonimidoyl)-1H-indol-6-yl)(morpholino)methanone]	–
–	98	CCOc1ccc(F)c(-c2cnc(-n3cc([S+](C)[O-])c4ccc(C(=O)N(C)CCO)cc43)nc2)c1 (stereo not drawn) [Example 316, 1-(5-(5-Ethoxy-2-fluorophenyl)pyrimidin-2-yl)-N-(2-hydroxyethyl)-N-methyl-3-(methylsulfinyl)-1H-indole-6-carboxamide]	–
94	–	C[S+]([O-])c1cn(-c2ncc(-c3cc(C(C)(C)O)ccc3F)cn2)c2cc(C(=O)N3CCOCC3)ccc12 (stereo not drawn) [Example 293, (1-(5-(2-Fluoro-5-(2-hydroxypropan-2-yl)phenyl)pyrimidin-2-yl)-3-(methylsulfinyl)-1H-indol-6-yl)(morpholino)methanone]	–
94	–	Cc1ccc(F)c(-c2cnc(-n3cc([S+](C)[O-])c4ccc(C(=O)N(C)C)cc43)nc2)c1 (stereo not drawn) [Example 267, 1-(5-(2-Fluoro-5-methylphenyl)pyrimidin-2-yl)-N,N-dimethyl-3-(methylsulfinyl)-1H-indole-6-carboxamide]	–
–	99	CCOc1ccc(F)c(-c2cnc(-n3cc(C(C)O)c4ccc(C(=O)N5CCOCC5)cc43)nc2)c1 (stereo not drawn) [Example 319, (1-(5-(5-Ethoxy-2-fluorophenyl)pyrimidin-2-yl)-3-(1-hydroxyethyl)-1H-indol-6-yl)(morpholino)methanone]	–
98	–	CCOc1ccc(F)c(-c2cnc(-n3cc(S(C)(=O)=O)c4ccc(C(=O)N5CCOCC5)cc43)nc2)c1 [Example 326, (1-(5-(5-Ethoxy-2-fluorophenyl)pyrimidin-2-yl)-3-(methylsulfonyl)-1H-indol-6-yl)(morpholino)methanone]	–
–	–	CC(O)c1ccc(F)c(-c2cnc(-n3cc(S(C)(=O)=O)c4ccc(C(=O)N5CCOCC5)cc43)nc2)c1 (single isomer, unassigned) [Example 345, (1-(5-(2-Fluoro-5-(1-hydroxyethyl)phenyl)pyrimidin-2-yl)-3-(methylsulfonyl)-1H-indol-6-yl)(morpholino)methanone]	Inhibition in % (inhibition of PDE4B) (test concentration 10 μM (marked in cell), 10 µM): 95 (10 μM) %
104	–	CCc1ccc(F)c(-c2cnc(-n3cc([S+](C)[O-])c4ccc(C(=O)N(C)C)cc43)nc2)c1 (stereo not drawn) [Example 274, 1-(5-(5-Ethyl-2-fluorophenyl)pyrimidin-2-yl)-N,N-dimethyl-3-(methylsulfinyl)-1H-indole-6-carboxamide]	–
104	–	CN(CC(N)=O)C(=O)c1ccc2c([S+](C)[O-])cn(-c3ncc(-c4cc(N(C)C)ccn4)cn3)c2c1 (stereo not drawn) [Example 284, N-(2-Amino-2-oxoethyl)-1-(5-(4-(dimethylamino)pyridin-2-yl)pyrimidin-2-yl)-N-methyl-3-(methylsulfinyl)-1H-indole-6-carboxamide]	–
92	–	CN(C)C(=O)c1ccc2c([S+](C)[O-])cn(-c3ncc(-c4ccccn4)cn3)c2c1 (stereo not drawn) [Example 313, N,N-Dimethyl-3-(methylsulfinyl)-1-(5-(pyridin-2-yl)pyrimidin-2-yl)-1H-indole-6-carboxamide]	–
70	–	C[S+]([O-])c1cn(-c2ncc(-c3ccc4c(c3)OCO4)cn2)c2cc(C(=O)N3CCOCC3)ccc12 (stereo not drawn) [Example 262, (1-(5-(Benzo[d][1,3]dioxol-5-yl)pyrimidin-2-yl)-3-(methylsulfinyl)-1H-indol-6-yl)(morpholino)methanone]	–
–	96	CC(O)c1ccc(F)c(-c2cnc(-n3cc(S(C)(=O)=O)c4ccc(C(=O)N5CCOCC5)cc43)nc2)c1 (single isomer, unassigned) [Example 344, (1-(5-(2-Fluoro-5-(1-hydroxyethyl)phenyl)pyrimidin-2-yl)-3-(methylsulfonyl)-1H-indol-6-yl)(morpholino)methanone]	–
–	99	C[S+]([O-])c1cn(-c2ncc(-c3ccccc3F)cn2)c2cc(C(=O)N3CC[C@H](CO)C3)ccc12 (stereo partly drawn) [Example 303, (1-(5-(2-Fluorophenyl)pyrimidin-2-yl)-3-(methylsulfinyl)-1H-indol-6-yl)((S)-3-(hydroxymethyl)pyrrolidin-1-yl)methanone]	–
–	96	Cc1ccnc(-c2cnc(-n3cc(C(C)O)c4ccc(C(=O)N5CCOCC5)cc43)nc2)c1 (stereo not drawn) [Example 318, (3-(1-Hydroxyethyl)-1-(5-(4-methylpyridin-2-yl)pyrimidin-2-yl)-1H-indol-6-yl)(morpholino)methanone]	–
119	–	CCNc1ccnc(-c2cnc(-n3cc([S+](C)[O-])c4ccc(C(=O)N5CCOCC5)cc43)nc2)c1 (stereo not drawn) [Example 298, (1-(5-(4-(Ethylamino)pyridin-2-yl)pyrimidin-2-yl)-3-(methylsulfinyl)-1H-indol-6-yl)(morpholino)methanone]	–
73	–	C[S+]([O-])c1cn(-c2ncc(-c3ccccc3F)cn2)c2cc(C(=O)N3CC4CNCC4C3)ccc12 (stereo not drawn) [Example 222, (1-(5-(2-Fluorophenyl)pyrimidin-2-yl)-3-(methylsulfinyl)-1H-indol-6-yl)(hexahydropyrrolo[3,4-c]pyrrol-2(1H)-yl)methanone]	–
90	–	CC(O)c1ccnc(-c2cnc(-n3cc([S+](C)[O-])c4ccc(C(=O)N5CCOCC5)cc43)nc2)c1 (stereo not drawn) [Example 291, (1-(5-(4-(1-Hydroxyethyl)pyridin-2-yl)pyrimidin-2-yl)-3-(methylsulfinyl)-1H-indol-6-yl)(morpholino)methanone]	–
–	97	C[S+]([O-])c1cn(-c2ncc(-c3cc(NCC4CC4)ccc3F)cn2)c2cc(C(=O)N3CCOCC3)ccc12 (stereo not drawn) [Example 290, (1-(5-(5-((Cyclopropylmethyl)amino)-2-fluorophenyl)pyrimidin-2-yl)-3-(methylsulfinyl)-1H-indol-6-yl)(morpholino)methanone]	–
91	–	CCc1ccnc(-c2cnc(-n3cc([S+](C)[O-])c4ccc(C(=O)N(C)CC(N)=O)cc43)nc2)c1 (stereo not drawn) [Example 285, N-(2-Amino-2-oxoethyl)-1-(5-(4-ethylpyridin-2-yl)pyrimidin-2-yl)-N-methyl-3-(methylsulfinyl)-1H-indole-6-carboxamide]	–
86	–	Cc1ccnc(-c2cnc(-n3cc([S+](C)[O-])c4ccc(C(=O)N5C[C@@H]6C[C@H]5CN6)cc43)nc2)c1 (stereo partly drawn) [Example 245, (1S,4S)-2,5-Diazabicyclo[2.2.1]heptan-2-yl(1-(5-(4-methylpyridin-2-yl)pyrimidin-2-yl)-3-(methylsulfinyl)-1H-indol-6-yl)methanone]	–
–	101	C[S+]([O-])c1cn(-c2ncc(-c3ccccc3F)cn2)c2cc(C(=O)N3C[C@@H]4C[C@H]3CO4)ccc12 (stereo partly drawn) [Example 308, (1S,4S)-2-Oxa-5-azabicyclo[2.2.1]heptan-5-yl(1-(5-(2-fluorophenyl)pyrimidin-2-yl)-3-(methylsulfinyl)-1H-indol-6-yl)methanone]	–
